Assay [1] concerns the target ChsE1-ChsE2 (Mycobacterium tuberculosis, UniProt P71857+P71858).
For assay [2], the target named is T1, ChsE2 (Rv3543c), tagless, expressed from the cistronic construct pigr5 (Mycobacterium tuberculosis H37Rv, UniProt P71858 1-387).
T1 sequence: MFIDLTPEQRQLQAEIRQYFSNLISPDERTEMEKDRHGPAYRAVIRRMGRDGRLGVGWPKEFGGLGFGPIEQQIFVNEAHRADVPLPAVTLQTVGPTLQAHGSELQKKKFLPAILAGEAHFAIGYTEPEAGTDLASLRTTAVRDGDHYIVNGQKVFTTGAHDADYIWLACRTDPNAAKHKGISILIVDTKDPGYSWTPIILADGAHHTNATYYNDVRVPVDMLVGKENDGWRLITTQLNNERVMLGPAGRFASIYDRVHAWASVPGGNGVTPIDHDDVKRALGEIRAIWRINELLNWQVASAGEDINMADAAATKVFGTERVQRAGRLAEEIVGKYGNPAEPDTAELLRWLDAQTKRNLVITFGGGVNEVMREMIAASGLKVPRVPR
The assay can be described thus: pull-down.

For `Cc1cc2nc3c(=O)[nH]c(=O)nc-3n(C[C@H](O)[C@H](O)[C@H](O)COP(=O)(O)OP(=O)(O)OC[C@H]3O[C@@H](n4cnc5c(N)ncnc54)[C@H](O)[C@@H]3O)c2cc1C` [FAD], in assay [1], the “LC/UV/MS of released flavin (m/z 786), UV-visible spectrum” value is reported as “ChsE1-ChsE2 is isolated as a holoprotein with FAD cofactor”.

B1: ChsE1 (Rv3544c), N-terminal His6 tagged, expressed from the cistronic construct pigr5 (enzyme)
chain: MDFDPTAEQQAVADVVTSVLERDISWEALVCGGVTALPVPERLGGDGVGLFEVGALLTEVGRHGAVTPALATLGLGVVPLLELASAEQQDRFLAGVAKGGVLTAALNEPGAALPDRPATSFVGGRLSGTKVGVGYAEQADWMLVTADNAVVVVSPTADGVRMVRTPTSNGSDEYVMTMDGVAVADCDILADVAAHRVNQLALAVMGAYADGLVAGALRLTADYVANRKQFGKPLSTFQTVAAQLAEVYIASRTIDLVAKSVIWRLAEDLDAGDDLGVLGYWVTSQAPPAMQICHHLHGGMGMDVTYPMHRYYSTIKDLTRLLGGPSHRLELLGARCSLT
Turning to B1, the binding result in assay [2] was “binds”.

The values are drawn from publication PMC3726044 (Biochemistry, 2013).
